{"source": "paper PMC12992618", "about": "(Nature Communications, 2026)", "key": {"BRAF": {"biological_target": "T1, BRAF (Homo sapiens, UniProt P15056, V600E)", "T1 construct": "endogenous BRAF immunoprecipitated from HCC364 cells", "T1 sequence (P15056 2-766 V600E)": "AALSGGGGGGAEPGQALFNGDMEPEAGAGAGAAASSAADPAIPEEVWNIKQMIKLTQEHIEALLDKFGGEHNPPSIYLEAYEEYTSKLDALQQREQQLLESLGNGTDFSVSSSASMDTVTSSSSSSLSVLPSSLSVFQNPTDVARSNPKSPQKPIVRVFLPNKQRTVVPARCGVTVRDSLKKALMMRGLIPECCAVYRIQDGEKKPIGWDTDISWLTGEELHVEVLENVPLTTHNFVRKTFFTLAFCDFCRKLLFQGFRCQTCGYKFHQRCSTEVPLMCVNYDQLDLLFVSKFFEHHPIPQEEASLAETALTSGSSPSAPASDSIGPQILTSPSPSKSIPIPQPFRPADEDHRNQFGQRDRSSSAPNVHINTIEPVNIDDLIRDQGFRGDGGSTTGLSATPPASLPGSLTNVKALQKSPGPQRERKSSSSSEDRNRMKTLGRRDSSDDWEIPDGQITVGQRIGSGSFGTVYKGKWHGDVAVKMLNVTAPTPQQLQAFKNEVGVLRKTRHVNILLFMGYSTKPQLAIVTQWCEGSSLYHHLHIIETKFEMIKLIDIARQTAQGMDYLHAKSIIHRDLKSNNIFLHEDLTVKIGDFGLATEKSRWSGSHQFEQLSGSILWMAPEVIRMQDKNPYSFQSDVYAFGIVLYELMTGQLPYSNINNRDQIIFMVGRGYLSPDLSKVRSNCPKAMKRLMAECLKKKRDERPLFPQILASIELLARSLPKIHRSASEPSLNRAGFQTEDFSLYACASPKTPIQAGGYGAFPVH", "test": "BRAF-IP kinase assay after […] h cell treatment", "type": "cell-based"}, "CRAF": {"biological_target": "T2, CRAF (Homo sapiens, UniProt P04049)", "T2 construct": "gene RAF1; endogenous CRAF immunoprecipitated from NCI-H1666 and NCI-H2405 cells", "T2 sequence (P04049 whole entry)": "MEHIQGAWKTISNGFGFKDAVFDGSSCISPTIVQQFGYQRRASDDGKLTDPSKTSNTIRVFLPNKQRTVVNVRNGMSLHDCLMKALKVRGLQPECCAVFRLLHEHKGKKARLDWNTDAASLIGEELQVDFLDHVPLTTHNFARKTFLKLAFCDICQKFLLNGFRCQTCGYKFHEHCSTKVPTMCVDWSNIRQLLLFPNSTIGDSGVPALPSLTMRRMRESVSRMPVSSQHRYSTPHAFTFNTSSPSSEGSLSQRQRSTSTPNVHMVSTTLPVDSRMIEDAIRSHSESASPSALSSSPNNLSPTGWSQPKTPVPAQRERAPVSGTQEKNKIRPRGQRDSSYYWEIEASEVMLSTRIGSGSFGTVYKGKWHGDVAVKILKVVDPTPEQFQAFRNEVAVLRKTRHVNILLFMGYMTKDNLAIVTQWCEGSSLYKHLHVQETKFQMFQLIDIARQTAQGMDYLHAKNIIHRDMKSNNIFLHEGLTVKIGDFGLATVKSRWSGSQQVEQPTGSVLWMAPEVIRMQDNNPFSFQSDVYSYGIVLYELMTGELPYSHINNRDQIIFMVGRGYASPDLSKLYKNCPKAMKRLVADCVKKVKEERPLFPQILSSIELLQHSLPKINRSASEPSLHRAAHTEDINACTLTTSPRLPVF", "test": "CRAF-IP kinase assay after […] h cell treatment", "type": "cell-based"}}}
{"smiles": "Cc1ccc2c(Nc3cccc(Cl)c3F)nccc2c1NC(=O)c1csc2c(N)ncnc12", "note": "[belvarafenib]", "values": [{"measurement": "BRAF-IP kinase assay after 4 h cell treatment", "setting": "BRAF", "value": "Exarafenib and belvarafenib exhibit potent inhibition of BRAF kinase activity in Class I and II BRAF mutations"}, {"measurement": "CRAF-IP kinase assay after 4 h cell treatment", "setting": "CRAF", "value": "baseline CRAF kinase activity was strongly detected in NCI-H1666 cells and was significantly inhibited by exarafenib and belvarafenib"}]}
